Reference: patent publication US8735584B2 (Merck Patent GmbH, priority 2008, dated 2014)

What was measured:
Type in all cases: biochemical
[1] = target: T1, AKT1 (Homo sapiens, UniProt P31749); assay: Desktop Profiler kinase panel, AKT1; conditions: 10 micromolar concentration of the compound; read-out: Percent Inhibition AKT1
T1 construct: purchased Caliper Life Sciences
Experimental: (§1) The Aurora assays described here are performed on two Caliper Life Sciences systems: the LC3000 and the Desktop Profiler. These provide data on enzyme activity via measurement of the relative amounts of phosphorylated or unphosphorylated fluorescently labelled substrate peptide at the end of an enzymatic reaction. These different states of peptide are resolved by applying a potential difference across the sample. The presence of the charged phosphate group on the product (as opposed to the substrate) causes a different peptide mobility between the two peptides. This is visualized by excitation of the fluorescent label on the substrate and product peptides and represented as peaks within the analysis software.
(§2) The Desktop Profiler utilizes the same principle as the LC3000 for calculating percentage conversion of a substrate to product. Caliper Life Sciences provides proprietary flash frozen pre-made 384 well plates containing selected kinases. Each column in the 384 well plate contains a particular selected kinase. A second plate, the ‘substrate plate’ contains a mix of fluorescently labeled peptide substrate and ATP. […]
(§3) Reading of the plate in the Profiler is identical to the LC3000, and the ratio between substrate and product peaks provides the activity of the enzyme in that well. […]

[2] = target: T2, AurA (Homo sapiens, UniProt O14965); assay: Desktop Profiler kinase panel, AurA; conditions: 10 micromolar concentration of the compound; read-out: Percent Inhibition AurA
T2 construct: purchased Caliper Life Sciences
T2 sequence (O14965 1-403): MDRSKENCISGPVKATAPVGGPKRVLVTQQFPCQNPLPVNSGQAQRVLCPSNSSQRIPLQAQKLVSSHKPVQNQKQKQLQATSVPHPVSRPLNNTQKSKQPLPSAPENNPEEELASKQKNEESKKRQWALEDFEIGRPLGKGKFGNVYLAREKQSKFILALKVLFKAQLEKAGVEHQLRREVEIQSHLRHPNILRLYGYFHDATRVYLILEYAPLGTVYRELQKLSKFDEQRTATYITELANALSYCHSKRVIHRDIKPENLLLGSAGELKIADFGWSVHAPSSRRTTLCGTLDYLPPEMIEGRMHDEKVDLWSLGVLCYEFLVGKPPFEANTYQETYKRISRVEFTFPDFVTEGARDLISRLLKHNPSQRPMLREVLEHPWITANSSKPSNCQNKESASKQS
In short: (§4)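 Pre-plated frozen kinases received compound at a single concentration, then a premixed fluorescent peptide substrate/ATP mix; 90 min at 25 C, stopped with EDTA buffer (pH 7.5). Mobility-shift electrophoresis resolved phosphorylated from unphosphorylated peptide; percent inhibition calculated versus no-inhibitor and no-ATP controls.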

[3] = target: T3, Erk1 (Homo sapiens, UniProt P27361); assay: Desktop Profiler kinase panel, Erk1; conditions: 10 micromolar concentration of the compound; read-out: Percent Inhibition Erk1
T3 construct: purchased Caliper Life Sciences
Experimental: as §1, §2, §3

[4] = target: T4, Erk2 (Homo sapiens, UniProt P28482); assay: Desktop Profiler kinase panel, Erk2; conditions: 10 micromolar concentration of the compound; read-out: Percent Inhibition Erk2
T4 construct: purchased Caliper Life Sciences
Experimental: as §1, §2, §3

[5] = target: T5, FYN (Homo sapiens, UniProt P06241); assay: Desktop Profiler kinase panel, FYN; conditions: 10 micromolar concentration of the compound; read-out: Percent Inhibition FYN
T5 construct: purchased Caliper Life Sciences
In short: as §4

[6] = target: T6, LCK (Homo sapiens, UniProt P06239); assay: Desktop Profiler kinase panel, LCK; conditions: 10 micromolar concentration of the compound; read-out: Percent Inhibition LCK
T6 construct: purchased Caliper Life Sciences
Experimental: as §1
(§5) The Desktop Profiler utilizes the same principle as the LC3000 for calculating percentage conversion of a substrate to product. Caliper Life Sciences provides proprietary flash frozen pre-made 384 well plates containing selected kinases. Each column in the 384 well plate contains a particular selected kinase. A second plate, the ‘substrate plate’ contains a mix of fluorescently labeled peptide substrate and ATP. These are arranged in columns so that transfer for substrate plate to enzyme plate provides the correct enzyme with the correct substrate/ATP concentration. Compounds are added to a thawed enzyme plate in the desired format, in single concentrations. Reactions are initiated by transfer of the substrate/ATP mix from the substrate plate. The enzyme plate is incubated for 90 mins at 25 C. The reaction is stopped by addition of 70 ul of Stop Buffer (100 mM HEPES pH 7.5, 0.015% Brij-35, 10 mM EDTA (Sigma, E7889)).
(§6) Reading of the plate in the Profiler is identical to the LC3000, and the ratio between substrate and product peaks provides the activity of the enzyme in that well. This is best represented by a plate heat map which colors each well by percent inhibition as compared to positive and negative controls (no inhibitors and no ATP respectively).
(§7) In the following Tables 3a-4-b, which show the results of the desktop profiler measurements, “+” means 50-70% inhibition, “++” means 70-90% inhibition, and “+++” means >90% inhibition. The enzymes tested for profiling were ABL, AKT1, AKT2, AurA, CHK1, CHK2, CK1d, Erk1, Erk2, FYN, GSK3b, INSR, LCK, LYN, MAPKAPK2, MET, MSK1, p38a, PKA, PKCz, PKD2, PRAK, RSK1 and SRC.

[7] = target: T7, MSK1 (Homo sapiens, UniProt O75582); assay: Desktop Profiler kinase panel, MSK1; conditions: 10 micromolar concentration of the compound; read-out: Percent Inhibition MSK1
T7 construct: purchased Caliper Life Sciences
Experimental: as §1, §5
as §6, with “respectively). […]” for “respectively).”

[8] = target: T8, PKD2 (Homo sapiens, UniProt Q9BZL6); assay: Desktop Profiler kinase panel, PKD2; conditions: 10 micromolar concentration of the compound; read-out: Percent Inhibition PKD2
T8 construct: purchased Caliper Life Sciences
T8 sequence (Q9BZL6 1-878): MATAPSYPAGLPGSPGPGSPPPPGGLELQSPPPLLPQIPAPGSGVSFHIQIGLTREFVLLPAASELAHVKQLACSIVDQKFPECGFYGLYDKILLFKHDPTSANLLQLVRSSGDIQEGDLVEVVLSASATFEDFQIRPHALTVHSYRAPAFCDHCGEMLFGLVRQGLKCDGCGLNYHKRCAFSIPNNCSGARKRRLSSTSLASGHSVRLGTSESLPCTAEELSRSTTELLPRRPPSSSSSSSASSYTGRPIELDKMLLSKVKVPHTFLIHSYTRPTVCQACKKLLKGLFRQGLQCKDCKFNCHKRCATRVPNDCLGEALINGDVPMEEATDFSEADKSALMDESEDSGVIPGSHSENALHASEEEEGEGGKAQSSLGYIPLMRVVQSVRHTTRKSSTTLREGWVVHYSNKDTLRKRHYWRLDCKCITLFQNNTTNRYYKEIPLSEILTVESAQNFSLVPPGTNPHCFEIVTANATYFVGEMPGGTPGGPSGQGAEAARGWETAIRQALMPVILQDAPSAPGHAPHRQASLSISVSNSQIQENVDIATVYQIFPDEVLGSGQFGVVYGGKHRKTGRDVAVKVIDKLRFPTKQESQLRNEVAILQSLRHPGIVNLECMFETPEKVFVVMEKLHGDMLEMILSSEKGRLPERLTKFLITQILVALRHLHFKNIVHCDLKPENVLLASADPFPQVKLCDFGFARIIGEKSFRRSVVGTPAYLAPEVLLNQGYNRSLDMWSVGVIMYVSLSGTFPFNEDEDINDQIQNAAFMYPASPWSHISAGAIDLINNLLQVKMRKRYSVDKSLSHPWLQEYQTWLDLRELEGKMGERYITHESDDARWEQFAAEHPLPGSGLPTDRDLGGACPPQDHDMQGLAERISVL
Experimental: as §1, §5, §6, §7

[9] = target: T9, RSK1 (Homo sapiens, UniProt Q15418); assay: Desktop Profiler kinase panel, RSK1; conditions: 10 micromolar concentration of the compound; read-out: Percent Inhibition RSK1
T9 construct: purchased Caliper Life Sciences
Experimental: as §1, §5, §6, §7

[10] = target: T10, MAPKAPK2 (Homo sapiens, UniProt P49137); assay: Desktop Profiler kinase panel, MAPKAPK2; conditions: 10 micromolar concentration of the compound; read-out: Percent Inhibition MAPKAPK2
T10 construct: purchased Caliper Life Sciences
Experimental: as §1, §2, §3

T7 sequence (O75582 whole entry, species assumed): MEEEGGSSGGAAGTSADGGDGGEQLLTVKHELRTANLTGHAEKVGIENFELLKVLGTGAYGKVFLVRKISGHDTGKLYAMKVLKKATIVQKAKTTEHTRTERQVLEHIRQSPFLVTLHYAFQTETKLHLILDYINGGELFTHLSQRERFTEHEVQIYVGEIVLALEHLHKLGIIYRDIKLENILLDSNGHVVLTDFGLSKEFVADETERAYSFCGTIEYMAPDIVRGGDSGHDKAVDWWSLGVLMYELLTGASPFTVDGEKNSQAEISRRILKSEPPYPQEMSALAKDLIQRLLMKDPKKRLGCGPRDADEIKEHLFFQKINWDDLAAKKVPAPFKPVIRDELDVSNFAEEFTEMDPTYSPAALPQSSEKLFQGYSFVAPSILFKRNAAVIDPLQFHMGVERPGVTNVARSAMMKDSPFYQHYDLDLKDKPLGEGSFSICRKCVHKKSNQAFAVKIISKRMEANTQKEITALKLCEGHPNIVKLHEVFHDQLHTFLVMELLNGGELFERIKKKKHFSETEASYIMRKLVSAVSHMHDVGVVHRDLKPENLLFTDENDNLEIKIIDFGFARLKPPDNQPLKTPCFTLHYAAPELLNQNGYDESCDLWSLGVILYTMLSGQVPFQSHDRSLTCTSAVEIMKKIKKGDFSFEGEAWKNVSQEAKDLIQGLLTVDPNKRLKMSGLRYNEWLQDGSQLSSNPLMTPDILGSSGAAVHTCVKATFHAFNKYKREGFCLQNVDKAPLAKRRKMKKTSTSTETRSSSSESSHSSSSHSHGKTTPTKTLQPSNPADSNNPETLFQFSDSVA
T5 sequence (P06241 whole entry, species assumed): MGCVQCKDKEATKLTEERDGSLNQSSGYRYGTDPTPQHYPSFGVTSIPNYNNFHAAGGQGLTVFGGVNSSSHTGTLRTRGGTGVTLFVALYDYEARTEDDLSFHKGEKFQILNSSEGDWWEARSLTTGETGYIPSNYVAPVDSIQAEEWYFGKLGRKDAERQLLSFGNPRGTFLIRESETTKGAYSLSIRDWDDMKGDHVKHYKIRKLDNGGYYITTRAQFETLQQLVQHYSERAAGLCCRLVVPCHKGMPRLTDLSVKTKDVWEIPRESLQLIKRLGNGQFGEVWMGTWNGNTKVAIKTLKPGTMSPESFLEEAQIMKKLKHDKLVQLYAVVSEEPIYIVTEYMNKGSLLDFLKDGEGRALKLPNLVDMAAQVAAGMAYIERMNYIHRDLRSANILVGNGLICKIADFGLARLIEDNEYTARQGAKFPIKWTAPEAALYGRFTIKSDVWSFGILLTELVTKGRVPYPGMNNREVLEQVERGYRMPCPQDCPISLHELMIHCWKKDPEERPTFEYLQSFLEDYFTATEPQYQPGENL
T9 sequence (Q15418 whole entry, species assumed): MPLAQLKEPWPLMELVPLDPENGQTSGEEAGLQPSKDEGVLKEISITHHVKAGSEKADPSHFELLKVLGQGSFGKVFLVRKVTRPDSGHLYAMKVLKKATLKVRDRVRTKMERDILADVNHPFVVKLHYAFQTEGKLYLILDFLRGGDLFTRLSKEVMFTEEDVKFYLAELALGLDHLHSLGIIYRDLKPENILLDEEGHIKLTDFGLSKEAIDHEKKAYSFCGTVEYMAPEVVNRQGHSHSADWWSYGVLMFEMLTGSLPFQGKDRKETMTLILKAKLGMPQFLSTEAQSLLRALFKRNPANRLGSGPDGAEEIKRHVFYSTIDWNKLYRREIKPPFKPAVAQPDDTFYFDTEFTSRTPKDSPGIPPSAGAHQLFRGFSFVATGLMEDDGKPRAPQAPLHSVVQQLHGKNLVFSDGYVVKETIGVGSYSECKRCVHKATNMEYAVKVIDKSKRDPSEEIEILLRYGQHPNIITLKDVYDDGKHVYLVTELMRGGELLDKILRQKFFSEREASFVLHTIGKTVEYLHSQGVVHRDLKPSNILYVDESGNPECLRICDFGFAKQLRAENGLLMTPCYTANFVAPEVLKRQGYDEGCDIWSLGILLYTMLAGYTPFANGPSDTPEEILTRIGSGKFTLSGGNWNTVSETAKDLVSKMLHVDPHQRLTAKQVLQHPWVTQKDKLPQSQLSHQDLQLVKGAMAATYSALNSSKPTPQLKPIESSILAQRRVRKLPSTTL
T10 sequence (P49137 whole entry, species assumed): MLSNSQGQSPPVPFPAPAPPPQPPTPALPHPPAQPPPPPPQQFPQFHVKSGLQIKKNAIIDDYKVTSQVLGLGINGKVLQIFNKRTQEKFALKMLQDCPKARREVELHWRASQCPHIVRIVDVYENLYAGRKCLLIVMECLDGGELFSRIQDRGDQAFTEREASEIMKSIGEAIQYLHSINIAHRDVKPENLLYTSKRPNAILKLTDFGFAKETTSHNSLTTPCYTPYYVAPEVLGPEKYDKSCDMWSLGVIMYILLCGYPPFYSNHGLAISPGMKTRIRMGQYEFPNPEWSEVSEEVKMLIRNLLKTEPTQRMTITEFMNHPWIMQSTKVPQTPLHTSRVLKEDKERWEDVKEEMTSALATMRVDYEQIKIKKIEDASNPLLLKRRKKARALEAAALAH
T4 sequence (P28482 whole entry, species assumed): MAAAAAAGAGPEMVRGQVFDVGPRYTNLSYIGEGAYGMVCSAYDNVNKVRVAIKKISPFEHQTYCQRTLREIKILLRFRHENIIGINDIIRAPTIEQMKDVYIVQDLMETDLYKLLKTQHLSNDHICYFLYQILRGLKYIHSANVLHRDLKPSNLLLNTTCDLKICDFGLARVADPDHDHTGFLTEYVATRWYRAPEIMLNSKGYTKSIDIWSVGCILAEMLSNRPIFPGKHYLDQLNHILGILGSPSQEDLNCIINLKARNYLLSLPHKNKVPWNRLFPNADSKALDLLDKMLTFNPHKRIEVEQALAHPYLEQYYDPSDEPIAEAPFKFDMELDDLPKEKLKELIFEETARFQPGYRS
T6 sequence (P06239 whole entry, species assumed): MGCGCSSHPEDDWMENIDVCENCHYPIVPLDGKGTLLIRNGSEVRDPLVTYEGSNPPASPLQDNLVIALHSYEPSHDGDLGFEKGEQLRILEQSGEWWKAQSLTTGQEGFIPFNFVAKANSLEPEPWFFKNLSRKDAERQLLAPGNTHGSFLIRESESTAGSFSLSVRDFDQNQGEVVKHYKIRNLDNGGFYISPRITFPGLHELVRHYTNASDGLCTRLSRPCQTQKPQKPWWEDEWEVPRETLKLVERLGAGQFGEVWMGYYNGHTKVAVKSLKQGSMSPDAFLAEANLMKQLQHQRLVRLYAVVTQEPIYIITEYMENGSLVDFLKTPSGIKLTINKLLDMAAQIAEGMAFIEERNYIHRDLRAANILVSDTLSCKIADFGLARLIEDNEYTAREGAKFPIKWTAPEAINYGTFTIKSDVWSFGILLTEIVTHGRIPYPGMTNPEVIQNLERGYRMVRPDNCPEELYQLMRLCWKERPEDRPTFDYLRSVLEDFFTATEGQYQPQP
T3 sequence (P27361 whole entry, species assumed): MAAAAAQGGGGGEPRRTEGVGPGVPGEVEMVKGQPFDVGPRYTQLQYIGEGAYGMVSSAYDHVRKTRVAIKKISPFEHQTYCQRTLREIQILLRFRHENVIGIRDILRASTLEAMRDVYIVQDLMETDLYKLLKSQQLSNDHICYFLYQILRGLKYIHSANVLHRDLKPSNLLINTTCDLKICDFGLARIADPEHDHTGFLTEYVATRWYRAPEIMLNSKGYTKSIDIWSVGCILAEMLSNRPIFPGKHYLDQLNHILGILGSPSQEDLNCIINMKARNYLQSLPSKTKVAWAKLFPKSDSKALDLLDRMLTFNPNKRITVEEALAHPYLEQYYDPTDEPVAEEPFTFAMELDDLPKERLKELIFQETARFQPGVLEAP
T1 sequence (P31749 whole entry, species assumed): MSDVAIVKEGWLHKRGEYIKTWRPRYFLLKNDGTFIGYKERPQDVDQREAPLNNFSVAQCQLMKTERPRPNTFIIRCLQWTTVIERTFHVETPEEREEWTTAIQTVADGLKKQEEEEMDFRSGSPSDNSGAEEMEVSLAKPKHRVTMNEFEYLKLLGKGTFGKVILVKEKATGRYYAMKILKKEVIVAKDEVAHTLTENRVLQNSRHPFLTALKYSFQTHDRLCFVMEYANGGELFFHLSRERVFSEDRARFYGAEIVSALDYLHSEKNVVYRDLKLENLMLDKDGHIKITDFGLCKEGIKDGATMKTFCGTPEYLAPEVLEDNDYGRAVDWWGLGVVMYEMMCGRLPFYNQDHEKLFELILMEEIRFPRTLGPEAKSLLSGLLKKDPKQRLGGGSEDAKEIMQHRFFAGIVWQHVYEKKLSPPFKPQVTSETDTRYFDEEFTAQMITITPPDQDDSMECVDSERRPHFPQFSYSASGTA

Row | SMILES | inhibition at 10 µM [1] | inhibition at 10 µM [2] | inhibition at 10 µM [3] | inhibition at 10 µM [4] | inhibition at 10 µM [5] | inhibition at 10 µM [6] | inhibition at 10 µM [7] | inhibition at 10 µM [8] | inhibition at 10 µM [9] | inhibition at 10 µM [10]
1 | O=c1[nH]c2ncccc2c2cc(Nc3cccc(F)c3)ccc12 [Example 31, 9-(3-Fluoro-phenylamino)-5H-benzo[c][1,8]naphthyridin-6-one] | 70 to 90% | > 90% | 70 to 90% | 70 to 90% | 70 to 90% | > 90% | 70 to 90% | > 90% | 50 to 70% | 
2 | CC(=O)Nc1ccc(Oc2ccc3c(=O)[nH]c4ncccc4c3c2)cc1 [Example 81, N-[4-(6-Oxo-5,6-dihydro-benzo[c][1,8]naphthyridin-9-yloxy)-phenyl]-acetamide] | > 90% | > 90% | 70 to 90% | 70 to 90% | > 90% | > 90% | > 90% | > 90% | 70 to 90% | 50 to 70%
3 | NC(=O)c1ccc(Oc2ccc3c(=O)[nH]c4ncccc4c3c2)cc1 [Example 82] |  | > 90% |  |  | > 90% |  | 50 to 70% | 50 to 70% | 50 to 70% | > 90%
